# Peptide text beside a SMILES is read from it. * marks the point of attachment. pNA = O=[N+]([O-])c1ccc(N*)cc1
# What was measured:
# factor Xa = biological target: T1, factor Xa (Homo sapiens, UniProt P00742); assay: Kinetic parameters of hydrolysis of the substrates by factor Xa in buffer A at 37° C. (Example 4, Table 3); assay type: biochemical; details: buffer A, 37° C., 50 nM factor Xa
# T1 construct: human factor Xa samples; gift of Dr. T. Lindhout (University of Limburg, Maastricht)
# Description: (§1) Kinetic parameters: The hydrolysis experiments were run in buffer A at 37° C. The liberation of p-nitroaniline was monitored at 405 nm in a dual wavelength (405-546 nm) spectrophotometer made in our workshop, using a personal computer for data recording. In a polystyrene microcuvette (total volume 500 μL), buffer A and substrate solution were added to obtain a final substrate concentration between 200 to 2000 μM. After 5 min of incubation at 37° C., enzyme solution was added to achieve a final concentration between 0.5 to 50 nM. The measurement was carried out at 37° C. in a thermostated cuvette-holder. The Michaelis constant (Km) and the catalytic constant (kcat) were obtained by measuring the initial reaction velocities at different substrate concentrations. The data obtained were fitted by linear regression on the Michaelis-Menten equation.
# (§2) Kinetic parameters: The Km and kcat values for each substrate were determined at an enzyme concentration of 0.5-50 nM (thrombin) and 50 nM factor Xa. From the initial reaction velocities, measured for at least six substrate concentrations between 200 and 2000 μM, the Km and kcat values were calculated by linear regression on the Michaelis-Menten curve. Table 3 gives an overview of the kinetic parameters of the different substrates hydrolyzed by thrombin and by factor Xa in buffer A.
# euglobulin thrombin = biological target: T2, euglobulin thrombin (Homo sapiens, UniProt P00734); assay: Decay constants of thrombin in plasma; assay type: biochemical
# T2 construct: The euglobulin thrombin fraction was prepared from defibrinated human plasma; from tissue; host or cells: defibrinated human plasma (euglobulin fraction, acid precipitation, method of Josso and Prou-Wartelle)
# Description: (§3) To this mixture was added 10 μL of a thrombin preparation to achieve a final concentration of 100 nM. At regular time intervals (5-10 s) 10 μL samples were subsampled into 490 μL buffer B which contained 200 μM of S2238 to determine thrombin activity. After 2 min the reaction was stopped by adding 300 μL 1M citric acid. The moment of sampling and stopping were recorded on a personal computer with pushbutton-equipped pipettes. The optical density was then read at 405 nm and the obtained amidolytic activities were used to calculate the decay constants. The obtained decay constant is the sum of the decay constants of the reaction of thrombin with antithrombin III (k1) and α2 -macroglobulin (k2).
# as §3, with “Decay constants of thrombin in plasma: To 120 μL defibrinated plasma was added: 50 μL of buffer A which contained the substances to be tested. To” for “To”, “was” for “was then”
# [1] = tested on: thrombin generation in tissue factor triggered plasma; assay: Manual determination of thrombin generation in plasma (subsampling method) and calculated prothrombinase activity; assay type: biochemical, human
# Description: Manual determination of thrombin generation in plasma: Extrinsic pathway: To 480 μL defibrinated plasma were added: 172 μL buffer A which contains the substrate at concentrations between 0 to 2000 μM and 20 μL of a 54 μM phospholipid solution (final concentration: 1.5 μM). After incubation of 4 min at 37° C., 24 μL tissue factor (undiluted) was added. Thrombin formation started at zero time by adding 24 μL of a 0.5 M CaCl2 solution (final concentration: 16.67 mM). At regular time intervals of 12 s samples of 10 μL were subsampled as described above. From the amidolytic activities thus obtained, the thrombin generation curve can be drawn. […] Intrinsic pathway: To 480 μL defibrinated plasma were added: 168 μL buffer A which contains the substrate at concentrations between 0 to 1000 μM and 48 μL Actin FS (undiluted). This mixture was intensively mixed and incubated for 4 min at 37° C. Thrombin generation was started at zero time by adding 24 μL of a 0.5 M CaCl2 solution (final concentration: 16.67 mM).
# Influence of the substrate on the prothrombinase-complex: With the obtained decay constants and from the curves obtained by the subsampling method we calculated the course of prothrombin conversion and the course of prothrombinase concentration.
# Manual determination of thrombin generation in plasma: Extrinsic pathway: To 480 μL defibrinated plasma were added: 172 μL buffer A which contained the substrate at concentrations between 0 to 2000 μM and 20 μL of a 54 μM phospholipid solution (final concentration: 1.5 μM). After incubation for 4 min at 37° C., 24 μL tissue factor (undiluted) was added. Thrombin formation started at zero time by adding 24 μL of a 0.5 M CaCl2 solution (final concentration: 16.67 mM). At regular time intervals of 12 s samples of 10 μL were subsampled as described above. From the amidolytic activities thus obtained, the thrombin generation curve can be drawn.
# Influence of the substrate on the prothrombinase-compzex: With the obtained decay constants and from the curves obtained by the subsampling method we calculated the course of prothrombin conversion and the course of prothrombinase concentration.
# thrombin = thrombin (Homo sapiens, UniProt P00734); assay: Kinetic parameters of hydrolysis of the substrates by thrombin in buffer A at 37° C. (Example 4, Table 3); assay type: biochemical; set-up: Pure human α-thrombin; gift of Dr. T. Lindhout (University of Limburg, Maastricht); details: buffer A, 37° C.
# Description: as §1, §2
# T1 sequence (P00742 41-179 limits assumed): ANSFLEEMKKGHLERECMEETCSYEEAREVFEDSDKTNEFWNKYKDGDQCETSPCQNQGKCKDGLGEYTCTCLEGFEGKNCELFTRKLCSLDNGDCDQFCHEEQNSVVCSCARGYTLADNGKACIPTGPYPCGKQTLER
# T1 sequence (P00742 235-488 limits assumed): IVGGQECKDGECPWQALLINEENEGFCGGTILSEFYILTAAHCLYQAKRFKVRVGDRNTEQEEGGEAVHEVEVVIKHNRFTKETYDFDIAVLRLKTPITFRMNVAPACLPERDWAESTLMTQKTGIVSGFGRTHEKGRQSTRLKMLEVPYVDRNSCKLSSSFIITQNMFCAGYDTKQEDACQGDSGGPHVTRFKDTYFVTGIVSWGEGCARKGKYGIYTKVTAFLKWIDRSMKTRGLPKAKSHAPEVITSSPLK
smiles,measurement,setting,value
CC(C)[C@H](NC(=O)CNC(=O)CNC(=O)[C@@H](N)CCC(=O)O)C(=O)N[C@@H](CCCNC(=N)N)C(=O)Nc1ccc([N+](=O)[O-])cc1 [2HCl.H-Glu-Gly-Gly-Val-Arg-pNA] (H-EGGVR-pNA),Factor Xa kcat,factor Xa,0.42 s⁻¹
same,Factor Xa kcat /Km,factor Xa,192 M/s
same,Km,factor Xa,2190 µM
same,"(k1,corr) = k1,corr divided by μM AT-III",euglobulin thrombin; [S] 200 μM in plasma,20380 M⁻¹ s⁻¹
same,"k1,corr : k1 after correcting for k2,M and 0.170",euglobulin thrombin; [S] 200 μM in plasma,1.769 min⁻¹
same,k1 : AT-III dependent decay of thrombin,euglobulin thrombin; [S] 200 μM in plasma,1.946 min⁻¹
same,k2 : α2 M dependent decay of thrombin,euglobulin thrombin; [S] 200 μM in plasma,0.213 min⁻¹
same,koverall,euglobulin thrombin; [S] 200 μM in plasma,2.159 min⁻¹
same,t1/2,euglobulin thrombin; [S] 200 μM in plasma,19.26 s
same,"(k1,corr) = k1,corr divided by μM AT-III",euglobulin thrombin; [S] 500 μM in plasma,19150 M⁻¹ s⁻¹
same,"k1,corr : k1 after correcting for k2,M and 0.170",euglobulin thrombin; [S] 500 μM in plasma,1.662 min⁻¹
same,k1 : AT-III dependent decay of thrombin,euglobulin thrombin; [S] 500 μM in plasma,1.733 min⁻¹
same,k2 : α2 M dependent decay of thrombin,euglobulin thrombin; [S] 500 μM in plasma,0.291 min⁻¹
same,koverall,euglobulin thrombin; [S] 500 μM in plasma,2.024 min⁻¹
same,t1/2,euglobulin thrombin; [S] 500 μM in plasma,21.04 s
same,"(k1,corr) = k1,corr divided by μM AT-III",euglobulin thrombin; [S] 1000 μM in plasma,16400 M⁻¹ s⁻¹
same,"k1,corr : k1 after correcting for k2,M and 0.170",euglobulin thrombin; [S] 1000 μM in plasma,1.427 min⁻¹
same,k1 : AT-III dependent decay of thrombin,euglobulin thrombin; [S] 1000 μM in plasma,1.594 min⁻¹
same,k2 : α2 M dependent decay of thrombin,euglobulin thrombin; [S] 1000 μM in plasma,0.172 min⁻¹
same,koverall,euglobulin thrombin; [S] 1000 μM in plasma,1.766 min⁻¹
same,t1/2,euglobulin thrombin; [S] 1000 μM in plasma,23.56 s
same,AA: amidolytic activity (maximum),[1]; [S] 200 μM,350.62 mOD/min
same,PT: prothrombinase concentration (maximum),[1]; [S] 200 μM,1086 mOD/min
same,T: thrombin concentration (maximum),[1]; [S] 200 μM,335.47 mOD/min
same,t: time point at which maximum of amidolytic activity is achieved,[1]; [S] 200 μM,60 s
same,t: time point at which maximum of prothrombinase concentration is achieved,[1]; [S] 200 μM,24 s
same,t: time point at which maximum of thrombin concentration is achieved,[1]; [S] 200 μM,60 s
same,"k2,M : k2 determined by the subsampling method",[1]; [S] 200 μM in plasma,0.220 min⁻¹
same,AA: amidolytic activity (maximum),[1]; [S] 500 μM,376.42 mOD/min
same,PT: prothrombinase concentration (maximum),[1]; [S] 500 μM,1122 mOD/min
same,T: thrombin concentration (maximum),[1]; [S] 500 μM,359.48 mOD/min
same,t: time point at which maximum of amidolytic activity is achieved,[1]; [S] 500 μM,60 s
same,t: time point at which maximum of prothrombinase concentration is achieved,[1]; [S] 500 μM,24 s
same,t: time point at which maximum of thrombin concentration is achieved,[1]; [S] 500 μM,60 s
same,"k2,M : k2 determined by the subsampling method",[1]; [S] 500 μM in plasma,0.192 min⁻¹
same,AA: amidolytic activity (maximum),[1]; [S] 1000 μM,409.85 mOD/min
same,PT: prothrombinase concentration (maximum),[1]; [S] 1000 μM,1149 mOD/min
same,T: thrombin concentration (maximum),[1]; [S] 1000 μM,396.23 mOD/min
same,t: time point at which maximum of amidolytic activity is achieved,[1]; [S] 1000 μM,60 s
same,t: time point at which maximum of prothrombinase concentration is achieved,[1]; [S] 1000 μM,24 s
same,t: time point at which maximum of thrombin concentration is achieved,[1]; [S] 1000 μM,60 s
same,"k2,M : k2 determined by the subsampling method",[1]; [S] 1000 μM in plasma,0.169 min⁻¹
same,influence on the prothrombinase complex / coagulation cascade,[1]; calculated from decay constants and manual thrombin generation curves,no inhibition of the prothrombinase activity
same,Km,thrombin,1010 µM
same,Thrombin kcat,thrombin,0.55 s⁻¹
same,Thrombin kcat /Km,thrombin,542 M/s
